Measured values published in US20150202203A1, “Method of Treating Gastrointestinal Stromal Tumors” (Novartis AG, priority 2012, published 2015).
“Also recorded” adds a separate entry of the source. Like-named read-outs stand apart in the source and are kept apart here.

Tests used:
[1] = tested on: GIST882 cells
Excerpt: (§1) GIST882 was established from an untreated human GIST with a homozygous missense mutation in KIT exon 13, encoding a K642E mutant KIT protein (Tuveson D A, Willis N A, et al. Oncogene 2001; 20: 5054-5058). […] GIST48 has a primary homozygous exon 11 missense mutation (V560D) and a secondary heterozygous exon 17 missense mutation (D820A). GIST430 has a primary heterozygous exon 11 in-frame deletion and a secondary heterozygous exon 13 missense mutation (V654A). […] It was established from a metastatic human GIST with a heterozygous deletion of 57 bases in exon 11 of KIT (Taguchi T, Sonobe H, Toyonaga S, et al. Lab Invest 2002; 82: 663-665).
(§2) 10,000 cells suspended in 80 μl media were seeded into each well of a 96-well cell-culture plate and grown for 24 hours prior to treatment. 10 μl of 60 μg/mL heparin (Sigma Catalog # H3149) was added to each well, and then 10 μl of 50 μg/mL FGF2 (R&D Catalog #233-FB/CF) or media was added to each well of the plates. 10 μl of each of the compound dilutions described above and 10 μl of media were added to wells to a final volume 120 μl such that all pair-wise combinations as well as the single agents were represented. Cells were incubated for 72 hrs at 37° C. in a 5% CO2 incubator following compound addition. Cell proliferation was measured using the CellTiter-Glo luminescent cell viability assay (Promega catalog # G755B) and Victor4 plate reader (Perkin Elmer).

[2] = tested on: GIST-T1 cells; assay: CellTiter-Glo cell viability assay, GIST-T1
Excerpt: as §1, §2

[3] = tested on: GIST430 cells; details: Imatinib combined with Dovitinib, 72 hrs
Procedure: GIST-T1 was obtained from Kochi Medical School, Kochi, Japan.
GIST882 cells were cultured in RPMI-1640 (ATCC Catalog #30-2001) supplemented with 15% FBS and 1% L-glutamine, GIST48 cells in F10 (Gibco/Invitrogen Catalog #11550-043) supplemented with 15% FBS, 0.5% Mito+ (BD Bioscience Catalog #355006), 1% BPE (BD Bioscience/Fisher Catalog#354123) and 1% L-glutamine, GIST430 cells in IMEM (Gib-co/Invitrogen Catalog #12440-053) supplemented with 15% FBS and 1% L-glutamine, and GIST-T1 cells in DMEM (Gibco/Invitrogen Catalog #11965) supplemented with 10% FBS.
10,000 cells suspended in 80 μl media were seeded into each well of a 96-well cell-culture plate and grown for 24 hours prior to treatment. 10 μl of 60 μg/mL heparin (Sigma Catalog # H3149) was added to each well, and then 10 μl of 50 μg/mL FGF2 (R&D Catalog #233-FB/CF) or media was added to each well of the plates. 10 μl of each of the compound dilutions described above and 10 μl of media were added to wells to a […] such that all pair-wise combinations as well as the single agents were represented.

[4] = tested on: KIT; assay: KIT inhibition by Western blot in GIST cell lines; type: cell-based, human; details: GIST-T1, GIST882 and GIST48; compared with dovitinib
Procedure: Protein lysates were prepared from cell monalayers using RIPA buffer (Cell Signaling Technology Catalog #9806) according to the procedure described by the manufacturer. Antibod-ies to detect phospho-KIT (Catalog #3073S), total KIT (Catalog #3308), phospho-AKT S473 (Catalog #4058), total AKT (Catalog #9272), phospho-ERK (Catalog #9101), total ERK (Catalog #9107) and phospho-FRS2 (Catalog #3864) were purchased from Cell Signaling Technology. Antibody to GAPDH (Catalog # MAB374) was purchased from Millipore and anti-FRS2(H-91) (Catalog #sc-8318) from Santa Cruz. Bound antibody was detected using the LI-COR Odyssey Infrared Imaging System.

[5] = tested on: GIST; details: cited from earlier work
[6] = absence of added FGF2, single agent
[7] = presence of added FGF2, single agent
[8] = Imatinib combined with Dovitinib, 72 hrs

SMILES | growth inhibition [1, 6] | growth inhibition [1, 7] | GI50 shift in the presence of added FGF2 ([1]; with vs without added FGF2) | growth inhibition [2, 6] | growth inhibition ([2]; absence of added FGF2, single agent, listed as nilotinib) | growth inhibition [2, 7] | GI50 shift in the presence of added FGF2 ([2]; with vs without added FGF2) | Combination Index for 70% inhibition of GIST cell proliferation [3] | Synergy Score for inhibition of GIST cell proliferation [3] | Combination Index for 70% inhibition of GIST cell proliferation [1, 8] | Synergy Score for inhibition of GIST cell proliferation [1, 8] | Combination Index for 70% inhibition of GIST cell proliferation [2, 8] | Synergy Score for inhibition of GIST cell proliferation [2, 8] | growth inhibition ([2]; presence of added FGF2, single agent, listed as Dovtinib) | KIT inhibition (Western blot) [4] | progression-free survival (PFS) ([5]; 800 mg/day compared to 400 mg/day, advanced GIST harboring KIT exon 9 mutations) | RFS and overall survival ([5]; adjuvant 400 mg once daily, 36 months vs 12 months (SSGXVIII/AIO)) | recurrence-free survival (RFS) ([5]; adjuvant 400 mg/day for 12 months vs placebo, after complete resection (ACOSOGZ9001))
Cc1cn(-c2cc(NC(=O)c3ccc(C)c(Nc4nccc(-c5cccnc5)n4)c3)cc(C(F)(F)F)c2)cn1 [Nilotinib, 4-methyl-3-[[4-(3-pyridinyl)-2-pyrimidinyl]amino]-N-[5-(4-methyl-1H-imidazol-1-yl)-3-(trifluoromethyl)phenyl]benzamide] | sensitive to KIT inhibition | less sensitive | greater than 10 fold | inhibits growth of GIST-T1 cells | sensitive to KIT inhibition | less sensitive; also recorded: significantly decreased | greater than 10 fold |  |  |  |  |  |  |  |  |  |  | 
CN1CCN(c2ccc3nc(-c4c(N)c5c(F)cccc5[nH]c4=O)[nH]c3c2)CC1 [Dovitinib, 4-amino-5-fluoro-3-[6-(4-methylpiperazin-1-yl)-1H-benzimidazol-2-yl]quinolin-2(1H)-one] | effective | restores maximum growth inhibition; also recorded: maximum inhibition was restored to levels comparable to the absence of FGF2 |  | effective |  | restores maximum growth inhibition; also recorded: maximum inhibition was restored to levels comparable to the absence of FGF2 |  | 0.624 | 0.635 | 0.965 | 0.321 | 0.835 | 0.422 | same level of maximum inhibition in the presence or absence of added FGF2 |  |  |  | 
Cc1ccc(NC(=O)c2ccc(CN3CCN(C)CC3)cc2)cc1Nc1nccc(-c2cccnc2)n1 [Imatinib, 4-(4-methylpiperazin-1-ylmethyl)-N-[4-methyl-3-(4-(pyridin-3-yl)pyrimidin-2-ylamino)phenyl]-benzamide] | efficacious | less sensitive |  | efficacious |  | less sensitive |  |  |  |  |  |  |  |  | more potent KIT inhibitor than dovitinib | significantly improves | superior to 12 months | significantly prolonged RFS
